# Measurements published in US8133849B2, “Herbicidal compounds” (Syngenta Limited, priority 2007, dated 2012).
# Key:
# Assay in all cases: Example B2 herbicidal action, post-emergence, pots in glasshouse, damage score 0-10
# Type in all cases: in vivo
# Details in all cases: application post-emergence, rate 1000 g/ha, evaluated after 13 days
# [1] = tested on: Setaria faberi
# Method in brief: (§1)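 Seedlings grown 8 days in a controlled glasshouse received a foliar spray of the compound formulated in 50:50 acetone/water plus 0.5% Tween 20; plant damage was assessed 13 days afterward.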
# [2] = tested on: Solanum nigrum
# Method in brief: as §1
# [3] = tested on: Amaranthus retroflexus
# Method in brief: as §1
# [4] = tested on: Echinochloa crus-galli
# Method in brief: as §1
# [5] = tested on: Ipomea hederaceae
# Method in brief: as §1
Compound,SETFA damage score (10=total damage to plant; 0=no damage to plant) [1],SOLNI damage score (10=total damage to plant; 0=no damage to plant) [2],AMARE damage score (10=total damage to plant; 0=no damage to plant) [3],ECHCG damage score (10=total damage to plant; 0=no damage to plant) [4],IPOHE damage score (10=total damage to plant; 0=no damage to plant) [5]
O=S1(=O)C(c2c(Cl)cccc2C(F)(F)F)=C(O)c2nccnc2N1CC(F)F [Compound D11],8,10,10,8,9
Cc1ccc(F)c(C2=C(O)c3nccnc3N(CC(F)F)S2(=O)=O)c1Cl [Compound D12],2,9,6,0,5
CCN1c2nccnc2C(O)=C(c2c(F)ccc(Br)c2Cl)S1(=O)=O [Compound D13],2,9,8,5,9
O=S1(=O)C(c2c(F)ccc(Br)c2Cl)=C(O)c2nccnc2N1CC(F)F [Compound D14],5,9,9,7,9
CCN1c2nccnc2C(O)=C(c2cc(C(F)(F)F)ccc2Cl)S1(=O)=O [Compound D15],4,9,9,2,9
"O=S1(=O)C(c2cc(C(F)(F)F)ccc2Cl)=C(O)c2nccnc2N1CC(F)F [Compound D16, 3-(2-chloro-5-trifluoromethyl-phenyl)-1-(2,2-difluoro-ethyl)-2,2-dioxo-1,2-dihydro-2-λ-6-thia-1,5,8-triaza-naphthalen-4-ol]",2,10,10,5,9
O=S1(=O)C(c2c(Cl)ccc(Cl)c2Cl)=C(O)c2nccnc2N1CC(F)F [Compound D17],9,10,10,9,10
O=S1(=O)C(c2ccccc2Br)=C(O)c2nccnc2N1CC(F)F [Compound D18],5,10,10,4,10
O=S1(=O)C(c2cc(Cl)cc(C(F)(F)F)c2)=C(O)c2nccnc2N1CC(F)F [Compound D19],0,2,0,0,0
O=S1(=O)C(c2c(F)ccc(-c3cccc(Cl)c3)c2Cl)=C(O)c2nccnc2N1CC(F)F [Compound D20],1,5,3,1,6
CCN1c2nccnc2C(O)=C(c2c(F)cccc2C(F)(F)F)S1(=O)=O [Compound D21],6,9,8,6,9
O=S1(=O)C(c2cc(C(F)(F)F)ccc2C(F)(F)F)=C(O)c2nccnc2N1CC(F)F [Compound D22],6,10,10,7,10
CCN1c2nccnc2C(O)=C(c2cc(F)c(Cl)cc2Cl)S1(=O)=O [Compound D23],2,8,8,2,9
CCN1c2nccnc2C(O)=C(c2cc(C(F)(F)F)ccc2C(F)(F)F)S1(=O)=O [Compound D24],1,10,6,3,10
O=S1(=O)C(c2cc(F)c(Cl)cc2Cl)=C(O)c2nccnc2N1CC(F)F [Compound D25],4,10,10,3,9
CCN1c2nccnc2C(O)=C(c2c(Cl)ccc(Cl)c2C(F)(F)F)S1(=O)=O [Compound D26],4,8,8,7,8
O=S1(=O)C(c2c(Cl)ccc(Cl)c2C(F)(F)F)=C(O)c2nccnc2N1CC(F)F [Compound D27],8,8,9,7,7
O=S1(=O)C(c2c(Br)cccc2Br)=C(O)c2nccnc2N1CC(F)F [Compound D28],8,9,10,8,8
O=S1(=O)C(c2cc(I)ccc2Cl)=C(O)c2nccnc2N1CC(F)F [Compound D29],3,7,5,2,7
O=S1(=O)C(c2cc(C(F)(F)F)ccc2Br)=C(O)c2nccnc2N1CC(F)F [Compound D30],3,10,10,6,10
O=S1(=O)C(c2ccccc2C(F)(F)F)=C(O)c2nccnc2N1CC(F)F [Compound D31],9,10,10,9,10
O=[N+]([O-])c1ccccc1C1=C(O)c2nccnc2N(CC(F)F)S1(=O)=O [Compound D32],1,6,5,0,5
CCN1c2nccnc2C(O)=C(c2ccccc2C(F)(F)F)S1(=O)=O [Compound D33],8,10,9,8,10
CCN1c2nccnc2C(O)=C(c2ccccc2[N+](=O)[O-])S1(=O)=O [Compound D34],1,1,0,0,2
CCN1c2nccnc2C(O)=C(c2cc(C(F)(F)F)ccc2Br)S1(=O)=O [Compound D35],4,9,8,1,10
CCN1c2nccnc2C(O)=C(c2c(Cl)ccc(Cl)c2Cl)S1(=O)=O [Compound D36],2,10,10,6,10
O=S1(=O)C(c2cccc(C(F)(F)F)c2Cl)=C(O)c2nccnc2N1CC(F)F [Compound D37],5,9,10,3,10
